According to patent US8263749B2, “Imatinib immunoassay” (Saladax Biomedical Inc., priority 2009, dated 2012):

What was measured:
Type in all cases: binding, mouse
[1] = system: monoclonal antibody 9F2-4-29 to imatinib; assay: Indirect competitive microtiter plate immunoassay (ELISA), cross-reactivity with monoclonal antibody 9F2-4-29; conditions: monoclonal antibody number 9F2-4-29; ratio of IC50 imatinib to IC50 analyte
Method: (§1) Mice from example 8a that were immunized with imatinib-KLH prepared in 6b were used to produce monoclonal antibodies. For monoclonal antibodies starting three days before the fusion, the mice were injected i.p. with 400 μg (3 days before fusion), 200 μg (2 days before fusion), and 200 μg (1 day before fusion) of imatinib-KLH in PSS/DMSO prepared in example 6b. Spleen cells were isolated from the selected mice and fused with 2×10^7 SP2/0 cells with 50% polyethylene glycol 1500 according to the method of Coligan, J. E. et al., eds., Current Protocols in Immunology, 2.5.1-2.5.8, (1992), Wiley & Sons, NY. The fused cells were plated on ten 96-well plates in DMEM/F12 supplemented with 20% FetalClone I, 2% L-glutamine (100 mM) and 2% 50× HAT. Two to three weeks later, the hybridoma supernatant was assayed for the presence of anti-imatinib antibodies by ELISA (as in example fob). […] Clones positive by ELISA were subcloned twice by limiting dilution according to the method disclosed in Coligan, J. E. et al., eds., Current Protocols in Immunology, 2.5.8-2.5.17, (1992), Wiley & Sons, NY. […] These monoclonal antibodies were tested for imatinib binding and cross-reactivity to a major imatinib metabolite, N-desmethyl imatinib, by indirect competitive microtiter plate assay as described in example 11. […]

[2] = system: polyclonal antibodies to imatinib (Example 8a); assay: Indirect competitive microtiter plate immunoassay (ELISA), cross-reactivity with polyclonal antibodies to imatinib; conditions: for Cross-reactivity of competitive immunoassay: ratio of IC50 imatinib to IC50 analyte
[3] = system: monoclonal antibody 9F2-4-31 to imatinib; assay: Indirect competitive microtiter plate immunoassay (ELISA), cross-reactivity with monoclonal antibody 9F2-4-31; conditions: monoclonal antibody number 9F2-4-31; ratio of IC50 imatinib to IC50 analyte
Method: as §1

[4] = system: selected monoclonal antibodies to imatinib (Example 8b); assay: Indirect competitive microtiter plate immunoassay (ELISA), cross-reactivity with selected monoclonal antibodies; conditions: measured with selected monoclonal antibodies
Method: Mice from example 8a that were immunized with imatinib-KLH prepared in 6b were used to produce monoclonal antibodies. For monoclonal antibodies starting three days before the fusion, the mice were injected i.p. with 400 μg (3 days before fusion), 200 μg (2 days before fusion), and 200 μg (1 day before fusion) of imatinib-KLH in PSS/DMSO prepared in example 6b. Spleen cells were isolated from the selected mice and fused with 2×10^7 SP2/0 cells with 50% polyethylene glycol 1500 according to the method of Coligan, J. E. et al., eds., Current Protocols in Immunology, 2.5.1-2.5.8, (1992), Wiley & Sons, NY. The fused cells were plated on ten 96-well plates in DMEM/F12 supplemented with 20% FetalClone I, 2% L-glutamine (100 mM) and 2% 50× HAT. Two to three weeks later, the hybridoma supernatant was assayed for the presence of anti-imatinib antibodies by ELISA (as in example fob). Cells from the wells that gave positive ELISA results (example lob) were expanded to 24 well plates. Clones positive by ELISA were subcloned twice by limiting dilution according to the method disclosed in Coligan, J. E. et al., eds., Current Protocols in Immunology, 2.5.8-2.5.17, (1992), Wiley & Sons, NY. Hybridoma culture supernatants containing monoclonal antibody from selected subclones were confirmed for imatinib binding by a competitive ELISA (example 11). […]

antibodies to imatinib = assay: Immunoassay reactivity of the antibodies produced in accordance with the invention (polyclonal and monoclonal); conditions: summary of Tables I and II
Method: Initial doses, bleedings and booster shots can be given according to accepted protocols for eliciting immune responses in animals, e.g., in a preferred embodiment mice received an initial dose of 100 ug immunogen/mouse, i.p. and two or more subsequent booster shots of between 50 and 100 ug immunogen/mouse over a six month period.
The ELISA method for determining IC50 values and cross-reactivity was performed with the microtiter plates that were sensitized with imatinib-BSA described in Examples 9. Analytes—imatinib and N-desmethyl imatinib were diluted in diH2O over a concentration range of 10 to 1,000,000 ng/mL. […] The assays were all performed by diluting the concentration of the antibodies in each of the wells to the titer determined in Example 10a. […] Following the incubation for color development, 50 of stop solution (1.5% sodium fluoride in di H2O) was added to each well to stop the color development and after 20 seconds of shaking the absorbance was determined at 650 nm (Molecular Devices Plate Reader). The amount of antibody in a well was proportional to the absorbance measured and inversely proportional to the amount of imatinib in the sample. The IC50's of imatinib and N-desmethyl imatinib were determined by constructing dose-response curves with the absorbance in the wells plotted versus analyte concentration in the wells. […]

[5] = polyclonal Bleed # 1, immunogen of example 6b
[6] = polyclonal Bleed # 2, immunogen of example 6b
[7] = polyclonal Bleed # 3, immunogen of example 6b
[8] = polyclonal Bleed # 4, immunogen of example 6a
[9] = polyclonal Bleed # 5, immunogen of example 6a

SMILES	Cross-reactivity of competitive immunoassay [1] [%]	Cross-reactivity of competitive immunoassay [2, 5] [%]	Cross-reactivity of competitive immunoassay [2, 6] [%]	Cross-reactivity of competitive immunoassay [2, 7] [%]	Cross-reactivity of competitive immunoassay [2, 8] [%]	Cross-reactivity of competitive immunoassay [2, 9] [%]	Cross-reactivity of competitive immunoassay [3] [%]	percent cross-reactivities relative to imatinib [4]	percent cross-reactivities relative to imatinib ([2]; measured with this pool of (polyclonal) antibodies)	reactivity with the antibodies (antibodies to imatinib)
Cc1ccc(NC(=O)c2ccc(CN3CCN(C)CC3)cc2)cc1Nc1nccc(-c2cccnc2)n1 [Imatinib]	100	100	100	100	100	100	100			
Cc1ccc(NC(=O)c2ccc(CN3CCNCC3)cc2)cc1Nc1nccc(-c2cccnc2)n1 [N-desmethyl imatinib]	2.7	1	5	2	7	1	3.2	less than 4%	less than or equal to 7%	substantially non-reactive
